Several values for one entry are separate records, joined by “and”; a condition that tells them apart may be missing. Identical values can stand only once.
Key:
[1] = test system: WI‐26 VA4 cells stably expressing EV (empty vector); test: Cytotoxicity assay in cells stably expressing EV; details: WI-26 VA4 EV, log(inhibitor) vs. response, variable slope (four parameters)
[2] = Cytotoxicity assay in cells stably expressing PARS1 mutant; details: human; for activity at 72 h, 3 µM: 3000 nM; for activity at 72 h, 30 µM: 30000 nM; for activity at 72 h, 100 µM: 100000 nM
[3] = test system: WI‐26 VA4 cells stably expressing PARS1 FA/EA/RL mutant; test: as above; details: WI-26 VA4 Flag-PARS1 FA/EA/RL
[4] = Cytotoxicity, % of control (single replicates, Experiment #1-#4), WI-26 VA4 Flag-PARS1 FA/EA/RL
[5] = Cytotoxicity, % of control, average, WI-26 VA4 Flag-PARS1 FA/EA/RL

Compound: O[C@H]1CCCN[C@@H]1CCCn1cnc2c(Cl)c(Cl)ccc21 [DWN12088]
- Cytotoxicity HillSlope (best-fit value) [1]: -1.361
- Cytotoxicity LogIC50 (best-fit value) ([1]; concentration in nM): 4.38
- CC50 at 72 h [2]: 11.8 µM
- IC50 at 72 h [2]: 11.8 µM
- activity at 72 h, 3 µM [2, 4]: 85.2%
- activity at 72 h, 30 µM [2, 4]: 25.3%
- activity at 72 h, 100 µM [2, 4]: 22.8%
- activity at 72 h, 0.01 µM ([2]; Cytotoxicity, % of control, average, WI-26 VA4 Flag-PARS1 FA/EA/RL, 10 nM): 110%
- activity at 72 h, 0.03 µM ([2]; Cytotoxicity, % of control, average, WI-26 VA4 Flag-PARS1 FA/EA/RL, 30 nM): 107%
- activity at 72 h, 0.1 µM ([2]; Cytotoxicity, % of control, average, WI-26 VA4 Flag-PARS1 FA/EA/RL, 100 nM): 110%
- activity at 72 h, 0.3 µM ([2]; Cytotoxicity, % of control, average, WI-26 VA4 Flag-PARS1 FA/EA/RL, 300 nM): 107%
- activity at 72 h, 1 µM ([2]; Cytotoxicity, % of control, average, WI-26 VA4 Flag-PARS1 FA/EA/RL, 1000 nM): 111%
- activity at 72 h, 3 µM [2, 5]: 81.7%
- activity at 72 h, 10 µM ([2]; Cytotoxicity, % of control, average, WI-26 VA4 Flag-PARS1 FA/EA/RL, 10000 nM): 68.8%
- activity at 72 h, 30 µM [2, 5]: 19.5%
- activity at 72 h, 100 µM [2, 5]: 20.1%
- activity at 72 h, 300 µM ([2]; Cytotoxicity, % of control, average, WI-26 VA4 Flag-PARS1 FA/EA/RL, 300000 nM): 1.1%
- activity at 72 h, 1000 µM ([2]; Cytotoxicity, % of control, average, WI-26 VA4 Flag-PARS1 FA/EA/RL, 1000000 nM): 0%
- Cytotoxicity, % of control (single replicates, Experiment #1-#4) ([3]; 10 nM, 0.01 µM): 127.65 % of control and 116.09 % of control and 111.66 % of control and 110.83 % of control and 101.75 % of control and 99.44 % of control and 110.49 % of control and 101.49 % of control
- Cytotoxicity, % of control (single replicates, Experiment #1-#4) ([3]; 30 nM, 0.03 µM): 126.96 % of control and 104.11 % of control and 114.08 % of control and 105.16 % of control and 106.38 % of control and 115.03 % of control and 93.72 % of control and 92.87 % of control
- Cytotoxicity, % of control (single replicates, Experiment #1-#4) ([3]; 100 nM, 0.1 µM): 127.60 % of control and 108.47 % of control and 113.70 % of control and 109.71 % of control and 111.06 % of control and 113.53 % of control and 98.60 % of control and 94.80 % of control
- Cytotoxicity, % of control (single replicates, Experiment #1-#4) ([3]; 300 nM, 0.3 µM): 132.76 % of control and 113.23 % of control and 105.15 % of control and 116.43 % of control and 104.37 % of control and 100.43 % of control and 94.90 % of control and 90.64 % of control
- Cytotoxicity, % of control (single replicates, Experiment #1-#4) ([3]; 1000 nM, 1 µM): 112.40 % of control and 100.20 % of control and 107.27 % of control and 121.00 % of control and 132.94 % of control and 130.17 % of control and 95.86 % of control and 86.64 % of control
- Cytotoxicity, % of control (single replicates, Experiment #1-#4) ([3]; 3000 nM, 3 µM): 71.51 % of control and 74.54 % of control and 81.32 % of control and 80.03 % of control and 89.57 % of control and 88.20 % of control and 83.52 % of control
- Cytotoxicity, % of control (single replicates, Experiment #1-#4) ([3]; 10000 nM, 10 µM): 63.68 % of control and 53.80 % of control and 76.80 % of control and 69.72 % of control and 64.84 % of control and 73.82 % of control and 81.37 % of control and 66.19 % of control
- Cytotoxicity, % of control (single replicates, Experiment #1-#4) ([3]; 30000 nM, 30 µM): 25.76 % of control and 18.61 % of control and 17.42 % of control and 17.01 % of control and 19.68 % of control and 18.20 % of control and 14.25 % of control
- Cytotoxicity, % of control (single replicates, Experiment #1-#4) ([3]; 100000 nM, 100 µM): 21.16 % of control and 22.59 % of control and 20.38 % of control and 17.48 % of control and 18.26 % of control and 18.73 % of control and 19.25 % of control
- Cytotoxicity, % of control (single replicates, Experiment #1-#4) ([3]; 300000 nM, 300 µM): 1.23 % of control and 1.09 % of control and 1.22 % of control and 0.52 % of control and 1.28 % of control and 1.77 % of control and 1.38 % of control and 0.29 % of control
- Cytotoxicity, % of control (single replicates, Experiment #1-#4) ([3]; 1000000 nM, 1000 µM): 0.10 % of control and -0.10 % of control and 0.29 % of control and -0.29 % of control and 0.16 % of control and -0.16 % of control and 0.22 % of control and -0.22 % of control
- Cytotoxicity HillSlope (best-fit value) ([3]; log(inhibitor) vs. response, variable slope (four parameters)): -1.118
- Cytotoxicity LogIC50 (best-fit value) ([3]; log(inhibitor) vs. response, variable slope (four parameters), concentration in nM): 4.071
